The subject of the assay is Tétranychus urticae. As to the kind of experiment: Adulticide test on Tétranychus urticae (treated bean plants). The assay is classed as in vivo. Particulars: bean plants sprayed at different doses, infested with 25 females per leaf, 22-23°C, 60-65% relative humidity; live and dead mites counted 24 h and 48 h after treatment. The text has this: On utilise des plants de haricots comportant deux feuilles qui sont traitées au pistolet Fisher à différentes doses des produits à tester. Après séchage, ces plants sont infestés à raison de 25 femelles de Tétranychus urticae par feuille et maintenus à 22-23◊C, 60 - 65% d'humidité relative. Les dénombrements des acariens vivants et morts sont effectués 24 heures et 48 heures après traitement.

Regarding `CC(C)(C)OC(=O)/C(F)=C\[C@H]1[C@@H](C(=O)OC2Cc3cccc(-c4ccccc4)c3C2)C1(C)C` (stereo partly drawn) [Exemple 4, /1R-/1α,3α (E)/ 3-(3-terbutoxy-3-oxo-2-fluoro-1-propényl) -2,2-diméthyl cyclopropane carboxylatede 2,3-dihydro-4-phényl-1H-inden-2-yle], the “CL 50” value stood at 173 mg/hl.

The record behind these values is patent EP0215701A1, “Esters of cyclopropanecarboxylic acids and 2,3-dihydro-4-phenyl-1H-inden-2-ol, their preparation, their use as parasiticides and compositions containing them” (ROUSSEL-UCLAF, priority 1985, dated 1987).
